The text below walks through data of patent publication US4496543A, “Polypeptides, processes for their production, pharmaceutical compositions comprising said polypeptides and their use” (Sandoz Ltd., priority 1982, dated 1985).

The assay has as its system serum GH-level. The assay can be described thus: TEST I: depression of serum GH-levels in the rat (GH-secretion inhibiting activity). The assay is classed as in vivo. The conditions noted are these: male rats under Nembutal narcosis, s.c., activity at 60 minutes, serum GH by radio-immuno-assay. Here is the method: This test (TEST I) is carried out employing male rats under Nembutal narcosis. The test-substance is administered at varying, logarithmically staggered doses employing at least 4 rats per dose. The rats are decapitated 60 minutes after administration, the blood is collected and the serum GH-level determined by radio-immuno-assay.
The above test may be adapted to determine effectiveness over prolonged periods of time, e.g. by decapitating 6 or 18 hours after administration. "Polypeptides of Type-T" as hereinbefore defined may be shown to be active in the above described test method when administered at dosages in the aforesaid range, over longer periods of time, e.g. up to 18 hours.

For `C[C@H](N)C(=O)NCC(=O)N[C@H]1CSSC[C@@H](C(=O)O)NC(=O)[C@H](CO)NC(=O)[C@H]([C@@H](C)O)NC(=O)[C@H](Cc2ccccc2)NC(=O)[C@H]([C@@H](C)O)NC(=O)[C@H](CCCCN)NC(=O)[C@H](Cc2c[nH]c3ccccc23)NC(=O)[C@H](Cc2ccccc2)NC(=O)[C@H](Cc2ccccc2)NC(=O)[C@H](CC(N)=O)NC(=O)[C@H](CCCCN)NC1=O` [somatostatin], the “ID50 in TEST I (amount of compound required to effect 50% reduction of the GH-level compared with untreated controls)” value is 0.093 mg/kg.
